Marks after values point to notes of the source that are not given here.
Key:
eye disorders = test: Estimate of ideal therapeutic eye drop concentration to relieve eye disorders; format: in vivo, human; details: estimate of ideal therapeutic concentration applied as eye drops to relieve eye disorders
Description: (§1) The therapeutic concentrations of the preferred analogs are in the range of 10 to 80 μg/ml […], but concentrations as low as 0.1 μg/ml may elicit effects in sensitive individuals.
The potency of certain specific trialkyl phosphine oxides, e.g. isopropyl, sec-butyl, n-octyl-phosphine oxide, in relieving eye discomfort is exceptionally high, on the order of 0.001%. In such situations, an alternative preferred description of an effective unit dose is 0.01 mg/ml or 10 μg/ml, which is equivalent to 0.001% weight percent.

[1] = system: medial canthus of the eyelids; test: Sensory quality of the solution on the medial canthus of the eyelids / eye surface; format: in vivo, human; details: solution applied on the medial canthus of the eyelids
Text: [table] In selecting a particular analog, it is desirable to have one that has a long duration of action (several hours) and minimal stinging and burning sensations. These parameters are not predicted by the cooling effect of these substances on the human tongue, but must be determined by experiment. […] Thus, the hexyl analog is the preferred therapeutic of the two. The other particularly preferred analogs that have the desired qualities of long duration of action and absence of stinging and burning effects are identified with an asterisk in Table 1.

conjunctivitis = test: Eye drops in subjects with allergic conjunctivitis; format: in vivo, human; details: for stinging sensations: 0.1% solution, medial canthus/closed eye, about every 8 hours
Text: A subject, suffered from seasonal allergy. During the months of March through May, they would wake up in the morning sneezing, with a runny nose, and itchy eyes. The rhinitis, nasal congestion and obstruction were relieved to some extent by taking a Claritin® antihistamine tablet, but the symptoms of itchy, tearing, and red eyes were not. This individual applied, by the medial canthus/closed eye method in which they had been instructed, several drops of a 0.1% solution disec-butyl-n-pentyl-phosphine oxide ophthalmic eye drop solution, into each eye about every 8 hours for two days. […] They felt more clear-sighted and vigilant, and was of the opinion that the eye drops had therapeutic value for their conjunctivitis. Similar results were obtained with 3 additional subjects suffering from ocular allergies. A subject, suffered from perennial rhinitis that was aggravated by sinusitis, nasal surgery, and a prolonged course of antibiotics. They developed a generalized allergic condition with severe itchy rash on their back, dermatitis on their face (especially on their cheeks), and had itchy, puffy and red eyes. This individual applied, by the medial canthus/closed eye method in which they had been instructed, several drops of a 0.1% solution disec-butyl-pentyl-phosphine oxide ophthalmic solution into each eye for about every 8 hours for three days. […] The subject was of the opinion that the eye drops had therapeutic value for their conjunctivitis.

[2] = system: tongue of human volunteers; test: Cooling sensations when applied to the tongue of human volunteers; format: in vivo; details: for Duration of Action: duration of the cooling action on the tongue; for Relative Potency: reciprocal of threshold, normalized to unity for analogs with 1.25 μg/ml; for Threshold: threshold for producing cooling sensations on the tongue of human volunteers
Description: as §1

[3] = system: opened eyes of volunteers; test: Eye drops applied directly to the opened eyes of volunteers; format: in vivo, human
Description: (§2) For trialkyl phosphine oxide eye drop solutions of this invention, I have discovered an indirect method of application as follows. The eye dropper is aimed at the medial canthus (nasal corner) of the eye, the eye is then closed, the dispenser is squeezed to emit the eye drops, and the eye kept closed for about 1 min. This method of application can substantially avoid stinging and burning sensations. Apparently, the adaptation period of about 1 min allows the sensory processes to develop tolerance to the initial stinging and burning stimuli. For example, if a 0.4 mg/ml solution of disec-butyl, n-hexyl-phosphine oxide [synonym, 1-(Di-sec-butyl-phosphinoyl)-hexane] in isotonic-buffered saline is dropped on the open eye, it causes stinging and burning for about 1 min. However, applied onto the corners of the eye, with the eyes closed for 1 min, these stinging and burning sensations are avoided. The medial canthus is preferred to the lateral canthus because the geometry of the orbit permits a longer residence time for the eye drop applied to the medial corner. Drops applied to the lateral canthus are less precisely located and rapidly dribble off the zygoma (cheekbone). A user can be instructed in this indirect method by including the instructions on packaging labels and/or inserts associated with the doses.
A 0.05% (0.5 mg/ml) disec-butyl-n-hexyl-phosphine oxide eye drop solution was prepared by adding the compound to an isotonic solution of sodium chloride, 0.65% in deionized water, monobasic potassium phosphate/sodium hydroxide buffer, preserved with disodium EDTA and benzalkonium chloride. The liquid was individually aliquoted into a ¼ oz. bottle with a Yorker spout (E.D. Luce Packaging) suitable for droplet delivery. This solution was applied to the opened eyes of three volunteers, with two to three drops of the solution applied to each eye. The subjects complained of stinging and burning sensations on the eye surface, lasting for about 2 min and requiring the subjects to shut their eyes. […]

skin of upper eyes = test: Application to skin of the upper eyes by swabstick (eye strain, contact lens user); format: in vivo, human
Description: Another modification of drug delivery was discovered. […] Example 4 notes that topical application of a 5% solution of a trialkyl phosphine oxide dissolved in pure propylene glycol produces robust cooling when applied in this manner.
A subject was stuck in traffic for over 2 hours on a hot and sunny (95° to 97° F.) day in an old car without air-conditioning. They were a user of soft contact lenses. […] They wanted to go on-line to work on a database project, but their eyestrain hindered their ability to focus. They volunteered to apply onto the skin of their upper eyes a 5% solution of disec-butyl-n-hexyl-phosphine oxide dissolved in 100% propylene glycol. A cotton swabstick was used to dab the solution onto the surfaces of the skin with extra care not touch the margins of the eyelids or eye surface. After drug application, a robust cooling sensation developed in the eyes that lasted for about 3 hours. […] They also reported that they felt more alert and energetic.

[4] = system: closed eyes of volunteers; test: Eye drops applied to medial canthus of closed eyes, kept closed about 1 min; format: in vivo, human
Description: as §2
The solution, as in Example 1, was then used by another three subjects with the instruction to apply the droplets to the nasal corner of the eye (medial canthus), without touching the tip of the dispenser to the eyelid surface, to let the solution seep into the eyelids and eye surface but to keep eyes closed for at least one minute. The subjects reported slight sensations of stinging when the eyes were opened, effects that lasted for less than 1 minute, followed by sensations of coolness and comfort lasting at least two hours. The experiment was then repeated, but with a higher concentration of 0.2% of disec-butyl-n-hexyl-phosphine oxide.
A 0.2% (2.0 mg/ml) disec-butyl-n-heptyl-phosphine oxide eye drop solution was prepared by adding the compound to an isotonic solution of sodium chloride, 0.65% in deionized water, monobasic potassium phosphate/sodium hydroxide buffer, preserved with disodium EDTA and benzalkonium chloride. The liquid was individually aliquoted into a ¼ oz. bottle with a Yorker spout (E.D. Luce Packaging) suitable for droplet delivery. This solution was then applied to the closed eyes of three volunteers, with two to three drops of the solution applied to each eye. The subjects complained of stinging and burning sensations on the eye surface, lasting for about 2 min. A series of six solutions were then prepared in which six different hydrocarbon polyols were added to the parent 0.2% solution. The individual additions were 1.5% sucrose, 1.5% fructose, 1.5% dextrose, 1.5% lactose, 1.5% inositol, or 0.5% carboxymethylcellulose. […] There was some tearing, but no evidence of increased eye redness from the hydrocarbon polyols and subjective complaints of discomfort were minimal.

dry eyes = test: Eye drops in contact lens user with dry eyes; format: in vivo, human; details: 0.2% solution with 0.5% carboxymethylcellulose
Text: The subject of example 4 is a daily user of disposable soft contact lenses, has “dry eyes”, and is a constant user of Refresh Eyes®, an artificial tears solution with 0.5% carboxymethylcellulose stored in a unit dispenser. They were instructed on how to instill the eye drops into the nasal corner (medial canthus) of their closed eyes and how to avoid the initial discomforts of the solution. The subject, who is an internationally-ranked tennis player, volunteered to self-administer, by the medial canthus/closed eye method, a 0.2% solution disec-butyl-n-hexyl-phosphine oxide ophthalmic solution containing 0.5% carboxymethylcellulose.

ocular pain = test: Eye drops for ocular pain after refractive eye surgery (LASIK); format: in vivo, human
Text: A subject, underwent bilateral refractive eye surgery (LASIK) for myopia in order to maintain their qualifications for special duties in the military. On the first day after surgery their eye surfaces and eyelids were bright red from dilated and enlarged blood vessels, but there was little pain. However, on the second day, the individual suffered excruciating pain from their eyes that was incapacitating and prevented them from going to work. This individual volunteered to apply eye drops of a 0.05% solution disec-butyl-n-hexyl-phosphine oxide ophthalamic into each eye for about every 6 hours for three days. They were instructed on how to instill the eye drops into the nasal corner (medial canthus) of their closed eyes and how to avoid the initial discomforts of the solution. […] They felt much better and was of the opinion that the eye drops had therapeutic value for ocular pain.

[5] = 0.1% solution every 8 hours for two days, seasonal allergy
[6] = 0.2% solution, medial canthus/closed eye

CCCCCP(=O)(C(C)CC)C(C)CC (stereo not shown) [n-C5H11 / sec-C4H9 / sec-C4H9, disec-butyl-n-pentyl-phosphine oxide]
Eye Therapy (eye disorders): 60* μg/ml
Sensory Quality [1]: cool only
effect on eye discomfort (conjunctivitis; 0.1% solution every 8 hours for three days, generalized allergic condition): relief of discomfort
itching (conjunctivitis; [5]): substantially reduced
redness (conjunctivitis; [5]): diminished
stinging sensations (conjunctivitis): initial mild sensation of “stinging”
stinging sensations (conjunctivitis; listed as disec-butyl-pentyl-phosphine oxide): No significant stinging sensations
Duration of Action [2]: 10 min
Relative Potency [2]: 1
Threshold [2]: 1.25 µg/mL

CCCCCCP(=O)(C(C)CC)C(C)CC (stereo not shown) [n-C6H13 / sec-C4H9 / sec-C4H9, 1-(Di-sec-butyl-phosphinoyl)-hexane]
Eye Therapy (eye disorders): 45 µg/mL
duration of stinging and burning ([3]; 0.4 mg/ml in isotonic-buffered saline dropped on the open eye): about 1 min
duration of stinging and burning sensations on the eye surface ([3]; 0.05% (0.5 mg/ml) solution, 2-3 drops, opened eyes, three volunteers): about 2 min
redness / vasodilatation on eye surface or eyelids ([3]; 0.05% solution, opened eyes): no evidence of increased redness
Sensory Quality [1]: cool/sting
duration of robust cooling sensation in the eyes (skin of upper eyes; 5% solution in 100% propylene glycol dabbed on skin of upper eyes, one subject): about 3 hours
effect on eye fatigue, irritation and discomfort (skin of upper eyes; 5% solution in 100% propylene glycol on skin of upper eyes): alleviated their sense of eye fatigue, irritation, and discomfort
stinging and burning sensations ([4]; 0.4 mg/ml applied onto corners of the eye, eyes closed for 1 min): avoided
duration of slight stinging when eyes were opened ([4]; 0.05% solution, medial canthus, eyes closed at least one minute, three subjects): less than 1 minute
duration of sensations of coolness and comfort ([4]; 0.05% solution, medial canthus/closed eye): at least two
sensations of stinging and burning vs 0.05% [4, 6]: slightly increased
tearing, irritation or redness [4, 6]: no signs of tearing was observed, nor of signs of irritation or redness
effect on eye dryness (subject's opinion) (dry eyes): useful to alleviate eye dryness
tearing (dry eyes): no increased tearing
reported sensations (dry eyes; medial canthus/closed eye, one subject): slight tingling in their eyelids followed by refreshing sensations in their eyelids and eye surface
adverse effects (ocular pain; 0.05% solution about every 6 hours for three days after LASIK): no significant adverse effects
acute pain from the eye surface (ocular pain; 0.05% solution about every 6 hours for three days, second day after LASIK, medial canthus/closed eye): significantly diminished within minutes
Duration of Action [2]: 20 min
potency on the human tongue (comparison of the two analogs) ([2]; hexyl vs heptyl analog): about equipotent
Relative Potency [2]: 1
Threshold [2]: 1.25 µg/mL

From patent US20050059639A1, “Ophthalmic compositions and method for treating eye discomfort and pain” (priority 2003, published 2005)
